Results published in PMC9017349, “Spiropyrimidinetriones: a Class of DNA Gyrase Inhibitors with Activity against Mycobacterium tuberculosis and without Cross-Resistance to Fluoroquinolones” (Antimicrobial Agents and Chemotherapy, 2022).
≈ marks a conversion by molar mass, not a printed value. Where “and” joins values, the source holds several entries; their conditions need not be identical. Identical values can stand only once. Like-named read-outs stand apart in the source and are kept apart here.

What was measured:
in vitro [1] = conditions: mouse, plasma
[2] = biological target: M. tuberculosis DNA gyrase (Mycobacterium tuberculosis, UniProt P9WG45+P9WG47); test: biochemical; conditions: read-out: IC50, DNA gyrase supercoiling
H37Rv (RecA) = assay type: cell-based, Mycobacterium tuberculosis
[3] = system: replicating M. tuberculosis H37Rv; assay type: cell-based; conditions: 1× MIC
[4] = system: M. tuberculosis expressing DsRed in murine RAW 264.7 cells; test: microbe, parasite or virus in culture; assay type: cell-based; conditions: for IC50: RAW 264.7, 72 h exposure, read-out: IC50, intracellular M. tuberculosis in murine macrophages
M. tuberculosis H37Rv [5] = test: MIC against M. tuberculosis H37Rv in 7H9 medium with various supplements; assay type: cell-based, Mycobacterium tuberculosis; conditions: for MIC: Mycobacterium tuberculosis, H37RV
S. pneumoniae = conditions: cited from earlier work
in vitro [6] = conditions: human, plasma
From the text: (§1) Aiming to identify a compound to progress to in vivo efficacy studies, compounds were profiled for physicochemical properties, PK, and safety.

[7] = system: recA promoter reporter in M. tuberculosis H37Rv; assay type: cell-based, Mycobacterium tuberculosis
murine RAW 264.7 cells = assay type: cell-based; conditions: highest concentration tested
physchem = conditions: pH 6.5
From the text: as §1

[8] = system: iniB promoter reporter in M. tuberculosis H37Rv; assay type: cell-based, Mycobacterium tuberculosis
M. tuberculosis Erdman = test: microbe, parasite or virus in culture; assay type: cell-based; conditions: Mycobacterium tuberculosis, read-out: MIC against the Erdman strain with 4% human serum albumin, 7H9 medium-ADC-glycerol plus 4% human serum albumin
M. tuberculosis H37Rv [9] = test: microbe, parasite or virus in culture; assay type: cell-based; conditions: Mycobacterium tuberculosis, 168 h
in vivo [10] = conditions: BALB/c, mouse, 300 mg/kg
M. tuberculosis H37Rv [11] = test: microbe, parasite or virus in culture; assay type: cell-based; conditions: Mycobacterium tuberculosis, read-out: MIC90, H37Rv
S. aureus = conditions: cited from earlier work
[12] = system: mouse lymphoma assay (micronucleation aberrations); conditions: highest concentration tested; cited from earlier work
[13] = for Average Conc. Found in plasma: infected BALB/c mice
[14] = system: M. tuberculosis Erdman pFCA-LuxAB (Erdman Lux); conditions: BALB/c mice, 300 mg/kg p.o. daily, 12 days
in vivo [15] = conditions: male, mouse
N. gonorrhoeae = conditions: cited from earlier work

Chain of M. tuberculosis DNA gyrase (P9WG45 whole entry): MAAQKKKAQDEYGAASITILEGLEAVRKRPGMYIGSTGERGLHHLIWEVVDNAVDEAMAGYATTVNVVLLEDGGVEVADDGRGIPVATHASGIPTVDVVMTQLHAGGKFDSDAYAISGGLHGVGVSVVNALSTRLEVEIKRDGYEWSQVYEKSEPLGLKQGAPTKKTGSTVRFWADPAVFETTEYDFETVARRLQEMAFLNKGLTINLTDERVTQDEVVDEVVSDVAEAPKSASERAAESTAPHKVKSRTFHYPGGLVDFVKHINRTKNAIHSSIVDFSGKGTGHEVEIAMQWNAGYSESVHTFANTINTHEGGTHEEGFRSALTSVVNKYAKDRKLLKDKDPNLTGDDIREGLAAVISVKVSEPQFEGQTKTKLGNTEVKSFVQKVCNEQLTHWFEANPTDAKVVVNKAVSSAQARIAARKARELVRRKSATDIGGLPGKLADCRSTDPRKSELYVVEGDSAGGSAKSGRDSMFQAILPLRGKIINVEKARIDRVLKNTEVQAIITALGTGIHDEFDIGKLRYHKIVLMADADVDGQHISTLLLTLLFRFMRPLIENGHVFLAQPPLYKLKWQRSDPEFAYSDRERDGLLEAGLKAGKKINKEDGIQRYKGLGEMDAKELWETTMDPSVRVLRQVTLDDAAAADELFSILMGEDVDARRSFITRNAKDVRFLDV
Chain of M. tuberculosis DNA gyrase (P9WG47 whole entry): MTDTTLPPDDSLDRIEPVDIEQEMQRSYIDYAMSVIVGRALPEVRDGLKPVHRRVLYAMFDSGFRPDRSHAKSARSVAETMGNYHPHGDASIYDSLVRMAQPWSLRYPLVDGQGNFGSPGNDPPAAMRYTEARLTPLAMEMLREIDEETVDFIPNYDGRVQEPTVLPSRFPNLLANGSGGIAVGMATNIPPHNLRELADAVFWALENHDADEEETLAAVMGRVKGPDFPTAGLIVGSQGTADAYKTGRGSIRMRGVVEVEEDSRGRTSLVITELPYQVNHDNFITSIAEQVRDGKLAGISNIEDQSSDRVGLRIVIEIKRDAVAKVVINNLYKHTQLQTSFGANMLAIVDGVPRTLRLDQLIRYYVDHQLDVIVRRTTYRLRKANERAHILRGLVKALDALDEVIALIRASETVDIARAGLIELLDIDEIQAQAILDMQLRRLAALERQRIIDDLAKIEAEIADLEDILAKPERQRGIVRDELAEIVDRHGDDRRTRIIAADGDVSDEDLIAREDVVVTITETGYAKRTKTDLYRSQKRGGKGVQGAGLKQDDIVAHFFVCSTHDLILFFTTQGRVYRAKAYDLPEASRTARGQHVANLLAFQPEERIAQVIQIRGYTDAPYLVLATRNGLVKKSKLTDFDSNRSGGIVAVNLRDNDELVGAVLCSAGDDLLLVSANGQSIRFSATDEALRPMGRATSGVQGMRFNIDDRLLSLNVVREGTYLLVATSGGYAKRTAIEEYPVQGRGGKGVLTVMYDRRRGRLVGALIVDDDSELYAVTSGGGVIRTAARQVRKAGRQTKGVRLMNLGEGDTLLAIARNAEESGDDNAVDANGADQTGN

Cc1nnc(-c2noc3c(F)c4c(cc23)CC2(C(=O)NC(=O)NC2=O)[C@H]2[C@H](C)O[C@H](C)CN42)o1 [Compound 22]
fraction unbound (in vitro [1]): 0.068
IC50 [2]: 2 µM
PrecA-LUX MIC (H37Rv (RecA)): ~ 3.9 μM
time to 3-log kill [3]: 7 days
macrophage IC50 higher than the average in vitro broth MIC [4]: less than 3 fold
IC50 ([4]; Mycobacterium tuberculosis, RAW264.7, 72 h): 6.3 µM
IC50 [4]: 6 µM
antibacterial activity in culture lower than moxifloxacin (M. tuberculosis H37Rv [5]): 8 fold
MIC (M. tuberculosis H37Rv [5]; read-out: MIC, ADC/GLU/TW): 1.7 µM (≈ 0.8 µg/mL)
MIC (M. tuberculosis H37Rv [5]; read-out: MIC, DPPC/CAS/TX): 5.2 µM (≈ 2.45 µg/mL)
MIC (M. tuberculosis H37Rv [5]; read-out: MIC, DPPC/Chol/BSA/TX): 2.9 µM (≈ 1.36 µg/mL)
MIC (M. tuberculosis H37Rv [5]; read-out: MIC, GLU/BSA/TX): 3 µM (≈ 1.41 µg/mL)
MIC (M. tuberculosis H37Rv [5]; read-out: MIC, GLU/CAS/TX): 2.6 µM (≈ 1.22 µg/mL)
MIC against S. pneumoniae (S. pneumoniae): 0.25 µM (≈ 0.118 µg/mL)
fraction unbound (in vitro [6]): 0.15
concentration of maximal effect in PrecA-LUX assay ([7]; at 7 days): 0.4 µM
bioluminescence response in PrecA-LUX assay ([7]; over 7 days): strong bioluminescence signal
toxicity against the macrophage cell line (murine RAW 264.7 cells): > 100 µM
solubility thermodynamic (physchem): 140 µM (≈ 65.9 µg/mL)
bioluminescence response in PiniB-LUX assay [8]: none of the DNA gyrase inhibitors, including 22, elicited a strong bioluminescence response
MIC (M. tuberculosis Erdman): 16 µM
MIC (M. tuberculosis H37Rv [9]; H37Rv, 7 days, Middlebrook 7H9 with OADC and glycerol, read-out: MIC (dose-response)): 7.26 µM (≈ 3.42 µg/mL)
MBC (M. tuberculosis H37Rv [9]; H37RV, CARA, transfer to charcoal agar, additional 7 days): 15.6 µM (≈ 7.34 µg/mL)
Cmax (in vivo [10]): 165 ± 58 µg/mL
MIC90 (M. tuberculosis H37Rv [11]): 1 µM (≈ 0.47 µg/mL)
MIC against S. aureus (S. aureus): 0.5 µM (≈ 0.235 µg/mL)
genotoxicity in the MLA [12]: no genotoxicity at the highest concentration tested
Found Concentration in plasma, single mice ([13]; infected BALB/c mice A, B, C, 300 mg/kg QD, 1 hr post dose, 300 mg/kg): 229000 ng/mL and 117000 ng/mL and 148000 ng/mL
Average Conc. Found in plasma ([13]; 300 mg/kg QD, 1 hr post dose): 165000 ng/mL
Average Conc. Found in plasma ([13]; 300 mg/kg QD, 24 hr post dose): 6100 ng/mL
free drug concentration over the MIC ([13]; predicted from PK in healthy mice, for over 8 h): about 2 fold
tolerability [14]: generally well tolerated
AUC(0-inf) (in vivo [15]; iv, 2 mg/kg): 2.37 µg·h/mL
Vd (in vivo [15]; iv, 2 mg/kg): 5.1 L/kg
clearance (in vivo [15]; iv, 2 mg/kg): 14.3 mL/min/kg
half-life (in vivo [15]; iv, 2 mg/kg): 3.7 h
AUC(0-inf) (in vivo [15]; po, 20 mg/kg): 24.6 µg·h/mL
Cmax (in vivo [15]; po, 20 mg/kg): 9.5 µg/mL
Tmax (in vivo [15]; po, 20 mg/kg): 1 h
bioavailability (in vivo [15]; po, 20 mg/kg): 104%
AUC(0-inf) (in vivo [15]; po, 100 mg/kg): 343 µg·h/mL
Cmax (in vivo [15]; po, 100 mg/kg): 47 µg/mL
Tmax (in vivo [15]; po, 100 mg/kg): 2.8 h
AUC(0-inf) (in vivo [15]; po, 300 mg/kg): 1270 µg·h/mL
Cmax (in vivo [15]; po, 300 mg/kg): 133 µg/mL
Tmax (in vivo [15]; po, 300 mg/kg): 1 h
AUC(0-inf) (in vivo [15]; po, 500 mg/kg): 1440 µg·h/mL
Cmax (in vivo [15]; po, 500 mg/kg): 117 µg/mL
Tmax (in vivo [15]; po, 500 mg/kg): 0.83 h
MIC against N. gonorrhoeae (N. gonorrhoeae): 2.0 µM (≈ 0.941 µg/mL)
